The text below walks through data of patent US20050026223A1, “Method and compositions for increasing bone mass” (The Board of Trustees of the University of Arkansas, priority 1999, published 2005).

For series [1], the system named is osteoblastic cells derived from murine calvaria. Put plainly: Etoposide-induced apoptosis of osteoblastic cells derived from murine calvaria (trypan blue uptake). The class given is cell-based. To be noted: for Lowest Effective Concentration: inhibition of etoposide-induced osteoblast apoptosis, 1 hour pretreatment, trypan blue after 6 hours; for Suppression by 10^−8 M Flutamide: suppression of the anti-apoptotic effect by the androgen receptor antagonist flutamide; for Anti-apoptotic effect on osteoblastic cells after ICI182,780: compound 10^−8 M, 1 h pretreatment with ICI182,780 10^−7 M. On the procedure:
Osteoblastic cells derived from murine calvaria were pretreated with the sterols for 1 hour before the addition of the pro-apoptotic agent, etoposide. Apoptosis was determined after 6 hours by trypan blue uptake (Jilka et al, J. Bone and Min. Res. 13:793:802, 1998). * indicates p<0.05 versus etoposide alone, by analysis of variance (ANOVA) (Student-Newman-Keuls method).
Osteoblastic cells derived from murine calvaria were pretreated for 1 hour with the pure receptor antagonist ICI182,780 (10^−7 M) before the addition of the test agents (10^−8 M). Apoptosis was induced and quantified as described in FIG. 3. * indicates p<0.05 versus etoposide alone, by ANOVA (Student-Newman-Keuls method).
In this experiment, osteoblastic cells were derived from murine calvaria and were pretreated with the sterols for 1 hour before the addition of the pro-apoptotic agent, etoposide.
In these experiments, cells were pretreated with the indicated concentrations of the various compounds for 1 hour, in the absence or presence of the androgen receptor antagonist flutamide, before the addition of the proapoptotic agent etoposide. Apoptosis was determined after 6 hours by trypan blue uptake as described in FIG. 3.

For series [2], the system named is MLO-Y4 osteocytic cells. Put plainly: Etoposide-induced apoptosis of MLO-Y4 osteocytic cells (trypan blue uptake). The note with it: for Inhibition of etoposide-induced apoptosis of osteocytic cell line: 1 h pretreatment before etoposide, trypan blue after 6 h; for Antiapoptotic effect on osteocytes after ICI182,780: 1 h pretreatment with ICI182,780 10^−7 M. The class given is cell-based, murine. On the procedure: Cells were pretreated with the indicated concentrations of the compounds for 1 hour before the addition of the pro-apoptotic agent etoposide. Apoptosis was determined after 6 hour by trypan blue uptake as described in FIG. 3. * indicates p<0.05 versus etoposide alone, by ANOVA (Student-Newman-Keuls method).
MLO-Y4 cells were pretreated for 1 hour with the pure receptor antagonist ICI182,780 (10^−7 M) before the addition of the test agents (10^−8 M). Apoptosis was induced and quantified as described in FIG. 3. * indicates p<0.05 versus etoposide alone, by ANOVA (Student-Newman-Keuls method).
In this experiment, MLO-Y4 cells were pretreated with the indicated concentrations of the various compounds for 1 h before the addition of the pro-apoptotic agent, etoposide. Apoptosis was determined after 6 h by trypan blue uptake as described in FIG. 3.

The subject of series [3] is HeLa cells transfected with estrogen receptor β (mERβ). Put plainly: Etoposide-induced apoptosis of HeLa cells stably transfected with mERβ. To be noted: compound 10^−8 M 1 h, etoposide 5×10^−5 M 6 hour. The class given is cell-based, human. The source says: (§1) CMV promoter alone and CMV promoter-driven cDNA for mERα or mErβ were stably transfected into HeLa cells. […] Cells were trypsinized, pelleted and trypan blue positive cells enumerated.
(§2) In this experiment, instead of calvaria cells, human HeLa cells which contain undetectable, if any, estrogen receptor were used. HeLa cells were stably transfected with either a CMV promoter-driven cDNA for the murine estrogen receptor-alpha (mERα) or a CMV promoter-driven cDNA for the murine estrogen receptor-beta (mERβ). […] Cells were trypsinized, pelleted and trypan blue positive cells were enumerated.

Series [4] relates to MLO-Y4 osteocytic cells. Put plainly: Dexamethasone-induced apoptosis of MLO-Y4 osteocytic cells with PD98059. It is filed as cell-based, murine. The note with it: compound 10^−8 M; PD98059 1 hour; dexamethasone 6 hours. The method, then: Apoptosis was induced by incubation with the pro-apoptotic agent dexamethasone for 6 hour and quantified as described in FIG. 3. * indicates p<0.05 versus the corresponding control group without dexamethasone, by ANOVA (Student-Newman-Keuls method).
That indeed the anti-apoptotic effect of all the compounds tested herein was mediated via activation of ERKs was established by the results of the experiments shown in FIG. 10. […] Apoptosis was induced by incubation with the pro-apoptotic agent dexamethasone for 6 hours and quantified as described in FIG. 3.

A further series concerns wild type HeLa cells. Put plainly: Etoposide-induced apoptosis of wild type HeLa cells. The class given is cell-based, human. The note with it: compound 10^−8 M 1 h, etoposide 5×10^−5 M 6 hour.
Text: CMV promoter alone and CMV promoter-driven cDNA for mERα or mErβ were stably transfected into HeLa cells. […] Cells were trypsinized, pelleted and trypan blue positive cells enumerated. Each bar represents mean of duplicate experiments ±SEM. *P<0.02 versus etoposide alone.
as §2

A further series has as its system osteoclasts. The note with it: increased from approximately 0.5%; cited from earlier work.
The test system of series [5] is extracellular signal regulated kinases (ERKs) 1 and 2. The series can be described thus: Western blot of phosphorylated ERK1/2 in MLO-Y4 osteocytic cells. The class given is cell-based, murine. The note with it: for Activation of ERKs (phosphorylated fraction of ERK1/2): 10^−8 M, 5, 15 or 30 minutes; for Ability to activate ERKs in the presence of PD98059: compound 10^−8 M, 5 minutes, 50 μM PD98059. The method, then: (§3) MLO-Y4 osteocytic cells were incubated for 25 minutes in serum-free medium. […] Cell lysates were prepared and proteins were separated by electrophoresis in polyacrylamide gels and transferred to PVDF membranes. Western blotting was performed using a specific antibody recognizing phosphorylated ERKs 1 and 2, followed by reblotting with an antibody recognizing total ERKs. Blots were developed by enhanced chemiluminescence.
MLO-Y4 cells were incubated for 25 minutes in serum-free medium in the presence or absence of 50 μM PD98059. […] Cell lysates were prepared and proteins were separated by electrophoresis in polyacrylamide gels and transferred to PVDF membranes. Western blotting was performed using a specific antibody recognizing phosphorylated ERKs 1 and 2, followed by reblotting with an antibody recognizing total ERKs. Blots were developed by enhanced chemiluminescence.
as §3, with “In this experiment, MLO-Y4” for “MLO-Y4”, “extracellular signal regulated kinases” for “ERKs”, “extracellular signal regulated kinases.” for “ERKs.”, “chemiluminescence. […] This effect is too rapid to be accounted for by the classical mechanism of estrogen action.” for “chemiluminescence.”
In this experiment, MLO-Y4 osteocytic cells were incubated for 25 minutes in serum-free medium in the presence or absence of 50 μM PD98059. […] Cell lysates were prepared and proteins were separated by electrophoresis in polyacrylamide gels and transferred to PVDF membranes. Western blotting was performed using a specific antibody recognizing phosphorylated extracellular signal regulated kinases 1 and 2, followed by reblotting with an antibody recognizing total extracellular signal regulated kinases. Blots were developed by enhanced chemiluminescence.

For series [6], the system named is HeLa cells transfected with the estrogen receptor α (mERα). Put plainly: Etoposide-induced apoptosis of HeLa cells stably transfected with mERα. The class given is cell-based, human. To be noted: compound 10^−8 M 1 h, etoposide 5×10^−5 M 6 hour.
Text: as §1, §2

For series [7] the following is noted: for at least four years; cited from earlier work.
The conditions of series [8]: human iliac trabecular bone, after one year of treatment; cited from earlier work.
For series [9] the following is noted: rats, intravenously; cited from earlier work.
The test system of the next series is osteoblasts. To be noted: intermittent administration in mice; decreased from 1.7-2.2%; cited from earlier work.

With `C[C@]12CCC(=O)C[C@@H]1CC[C@@H]1[C@@H]2CC[C@]2(C)[C@@H](O)CC[C@@H]12` [5-α-dihydrotestosterone], in series [1], the “Lowest Effective Concentration” value was 10^−9 M and the “Suppression by 10^−8 M Flutamide” value is recorded as “yes”.

Regarding `C[C@]12CC[C@H]3[C@@H](CCC4=CC(=O)CC[C@@]43C)[C@@H]1CC[C@@H]2O` [Testosterone], in [1], the “Lowest Effective Concentration” value was 10^−9 M and the “Suppression by 10^−8 M Flutamide” value was “yes”.

On to `C[C@]12CC[C@H]3[C@@H](CC=C4C[C@@H](O)CC[C@@]43C)[C@@H]1CC[C@@H]2O` [5-androstene-3β-17_-diol], for which, in [1], the “Lowest Effective Concentration” value is 10^−8 M and the “Suppression by 10^−8 M Flutamide” value is “yes”.

As for `C[C@]1(O)CC[C@H]2[C@@H]3CCC4=CC(=O)CCC4=C3C=C[C@@]21C` [RU1881], in series [1], the “Lowest Effective Concentration” value is reported as 10^−8 M and the “Suppression by 10^−8 M Flutamide” value was “yes”.

As for `C[C@]12CCC(=O)C=C1CC[C@@H]1[C@@H]2CC[C@]2(C)C(=O)CC[C@@H]12` [4-androstene-3,17-dione], in series [1], the “Lowest Effective Concentration” value was 10^−8 M and the “Suppression by 10^−8 M Flutamide” value is recorded as “yes”.

With `C[C@]12CC[C@@H]3c4ccc(O)cc4CC[C@H]3[C@@H]1CC[C@@H]2O` [17β-estradiol, reference compound], the “Inhibition of etoposide-induced apoptosis of osteocytic cell line” value with MLO-Y4 osteocytic cells [2] is reported as “dose-dependently inhibited”. Also, the “Antiapoptotic effect on osteocytes after ICI182,780” value in the series with MLO-Y4 osteocytic cells [2] is given as “abrogated”. In addition, the “Effect on etoposide-induced apoptosis” value in series [3] was “potently inhibited”; in the series with wild type HeLa cells it was “none of the three compounds had any effect”; in [6] it was “potently inhibited”. The “Anti-apoptotic effect after PD98059 pretreatment” value in the series on MLO-Y4 osteocytic cells [4] was “prevented the anti-apoptotic effect”. In addition, in the series on osteoclasts, the Apoptosis of osteoclasts is given as no more than 2.7%. Moreover, the “Activation of ERKs (phosphorylated fraction of ERK1/2)” value in series [5] is “activated”. In addition, the “Ability to activate ERKs in the presence of PD98059” value in series [5] was “abrogated”. The “Inhibition of etoposide-induced osteoblast apoptosis” value in series [1] (1 hour pretreatment before etoposide) is “prevented apoptosis of osteoblastic cells isolated from murine calvaria, in a dose dependent manner”. In addition, the “Anti-apoptotic effect on osteoblastic cells after ICI182,780” value in series [1] is given as “abrogated”.

Regarding `C[C@]12CC[C@H](OS(=O)(=O)O)CC1=CC[C@@H]1[C@@H]2CC[C@]2(C)C(=O)CC[C@@H]12` [Dehydroisoandrosterone-3-sulfate (DHES), Dehydroisoandrosterone-3-sulfate], in [1], the “Lowest Effective Concentration” value is on record as 10^−8 M and the “Suppression by 10^−8 M Flutamide” value is listed as “no*”.

`C[C@]12CC[C@@H]3c4ccc(O)cc4CC[C@H]3[C@@H]1CC[C@H]2O` [17α-estradiol]: in the series on MLO-Y4 osteocytic cells [2], the “Inhibition of etoposide-induced apoptosis of osteocytic cell line” value is “dose-dependently inhibited” and the “Antiapoptotic effect on osteocytes after ICI182,780” value is “abrogated”. Moreover, the “Effect on etoposide-induced apoptosis” value in series [3] is listed as “potently inhibited”. Besides, the “Anti-apoptotic effect after PD98059 pretreatment” value in the series with MLO-Y4 osteocytic cells [4] is reported as “prevented the anti-apoptotic effect”. Besides, the “Effect on etoposide-induced apoptosis” value with wild type HeLa cells is recorded as “none of the three compounds had any effect”. Moreover, in series [5], the “Activation of ERKs (phosphorylated fraction of ERK1/2)” value was “activated” and the “Ability to activate ERKs in the presence of PD98059” value was “abrogated”. Also, the “Anti-apoptotic effect on osteoblastic cells after ICI182,780” value in series [1] is reported as “abrogated”. The “Effect on etoposide-induced apoptosis” value in series [6] is “potently inhibited”.

For the molecule `C[C@]12CCC(=O)C[C@@H]1CC[C@@H]1[C@@H]2CC[C@]2(C)[C@@H](O)CC[C@@H]12` [5-β-dihydrotestosterone], in [1], the “Lowest Effective Concentration” value is reported as 10^−10 M and the “Suppression by 10^−8 M Flutamide” value was “yes”.

Consider `[F-].[Na+]` [sodium fluoride], for which the “Increase of vertebral bone mass” value in series [7] was 10 % a year.

Take `CC(O)(P(=O)(O)O)P(=O)(O)O` [etidronate]: the “Reduction of resorption depth” value in series [8] is listed as roughly 30%.

Regarding `CC(=O)N[C@@H](CS)C(=O)O` [N-acetylcysteine, acetamido-mercaptopropionic acid], in series [9], the LD50 is on record as 1140 mg/kg.

B1: PTH: parathyroid hormone, an agent known for its role in calcium homeostasis (protein, UniProt P01270 32-115, looked up)
Parathyroid hormone: SVSEIQLMHNLGKHLNSMERVEWLRKKLQDVHNFVALGAPLAPRDAGSQRPRKKEDNVLVESHEKSLGEADKADVNVLTKAKSQ
modifications: Parathyroid hormone
notes: parathyroid hormone, an agent known for its role in calcium homeostasis
Regarding B1, the “Prevalence of osteoblast apoptosis” value in the series with osteoblasts was 0.1-0.4%.
